Measurements taken from patent US20060100431A1, “Biologically active compounds” (Amura Therapeutics Limited, priority 2002, published 2006).

Assays:
Wild-type cruzipain = Wild-type cruzipain (Trypanosoma cruzi, UniProt P25779); experiment: Trypanosoma cruzi cruzipain peptidase activity assay (Ki); format: biochemical; conditions: read-out: Ki, inhibitors of cruzain and cruzipains
Outline: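 Native cruzipain from T. cruzi Dm28 epimastigotes, 2.5 nM, in 100 mM sodium phosphate pH 6.75 with 1 mM EDTA and 10 mM L-cysteine, 25 °C, DMSO <1%. Rates taken from continuous fluorogenic substrate read; Ki by regression assuming reversible pure-competitive inhibition.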

CPB2.8ΔCTE = molecular target: T1, CPB2.8ΔCTE (Leishmania mexicana, UniProt P36400); experiment: Leishmania mexicana cysteine protease B (CPB) peptidase activity assay (Ki); format: biochemical; conditions: Ki, inhibitors of Leismania mexicana CPB protease
T1 construct: Wild-type recombinant CPB without the C-terminal extention (i.e. CPB2.8ΔCTE); Dr. Jeremy Mottram (Wellcome Centre for Molecular Parasitology, University of Glasgow)
T1 sequence (P36400 126-343, stated change not applied): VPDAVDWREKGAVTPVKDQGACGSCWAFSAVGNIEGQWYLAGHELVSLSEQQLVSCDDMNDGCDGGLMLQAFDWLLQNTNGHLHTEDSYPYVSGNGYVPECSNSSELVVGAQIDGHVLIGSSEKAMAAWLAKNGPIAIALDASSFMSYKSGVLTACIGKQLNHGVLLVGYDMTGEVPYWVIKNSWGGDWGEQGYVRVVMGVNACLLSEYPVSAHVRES
Experimental: Unless otherwise stated, all general chemicals and biochemicals were purchased from either the Sigma Chemical Company, Poole, Dorset, U.K or from Fisher Scientific UK, Loughborough, Leicestershire, U.K. Absorbance assays were carried out in flat-bottomed 96-well plates (Spectra; Greiner Bio-One Ltd., Stonehouse, Gloucestershire, U.K.) using a SpectraMax PLUS384 plate reader (Molecular Devices, Crawley, U.K.). Fluorescence high throughput assays were carried out in either 384-well microtitre plates (Corning Costar 3705 plates, Fisher Scientific) or 96-well ‘U’ bottomed Microfluor W1 microtitre plates (Thermo Labsystems, Ashford, Middlesex, U.K.). Fluorescence assays were monitored using a SpectraMax Gemini fluorescence plate reader (Molecular Devices). For substrates employing either a 7-amino-4-methylcoumarin (AMC) or a 7-amino-4-trifluoromethylcoumarin (AFC) fluorophore, assays were monitored at an excitation wavelength of 365 nm and an emission wavelength of 450 nm and the fluorescence plate reader calibrated with AMC. For substrates employing a 3-amino-benzoyl (Abz) fluorophore, assays were monitored at an excitation wavelength of 310 nm and an emission wavelength of 445 nm; the fluorescence plate reader calibrated with 3-amino-benzamide (Fluka). Unless otherwise indicated, all the peptidase substrates were purchased from Bachem UK, St Helens, Merseyside, UK. Substrates utilizing fluorescence resonance energy transfer methodology (i.e. FRET-based substrates) were synthesized at Incenta Limited using published methods (Atherton & Sheppard, Solid Phase Peptide Synthesis, IRL Press, Oxford, U.K, 1989) and employed Abz (2-aminobenzoyl) as the fluorescence donor and 3-nitro-tyrosine [Tyr(NO2)] as the fluorescence quencher (Meldal, M. and Breddam, K., Anal. Biochem, 195, 141-147, 1991). Hydroxyethylpiperazine ethanesulfonate (HEPES), tris-hydroxylmethyl aminomethane (tris) base, bis-tris-propane and all the biological detergents (e.g. CHAPS, zwittergents, etc.) were purchased from CN Biosciences UK, Beeston, Nottinghamshire, U.K. Glycerol was purchased from Amersham Pharmacia Biotech, Little Chalfont, Buckinghamshire, U.K. Stock solutions of substrate or inhibitor were made up to 10 mM in 100% dimethylsulfoxide (DMSO) (Rathburns, Glasgow, U.K.) and diluted as appropriately required. In all cases the DMSO concentration in the assays was maintained at less than 1% (vol./vol.).
Assay protocols were based on literature precedent (Table 4; Barrett, A. J., Rawlings, N. D. and Woessner, J. F., 1998, Handbook of Proteolytic Enzymes, Academic Press, London and references therein) and modified as required to suit local assay protocols. Enzyme was added as required to initiate the reaction and the activity, as judged by the change in fluorescence upon conversion of substrate to product, was monitored over time. All assays were carried out at 25±1° C.
Wild-type recombinant CPB without the C-terminal extention (i.e. CPB2.8ΔCTE; Sanderson, S. J., et. al., Biochem. J., 347, 383-388, 2000) was obtained from Dr. Jeremy Mottram (Wellcome Centre for Molecular Parasitology, The Anderson College, University of Glasgow, Glasgow, U.K.). Activity assays were carried out in 100 mM sodium acetate; pH 5.5 containing 1 mM EDTA; 200 mM NaCl and 10 mM DTT (Alves, L. C., et. al., Mol. Biochem. Parasitol, 116, 1-9, 2001) using 0.25 nM enzyme. […] The rate of conversion of substrate to product was derived from the slope of the increase in fluorescence monitored continuously over time.
The apparent inhibition constant (Ki) for each compound was determined on the basis that inhibition was reversible and occurred by a pure-competitive mechanism. The Ki values were calculated, from the dependence of enzyme activity as a function of inhibitor concentration, by direct regression analysis (Prism v 3.02) using Equation 2 (Cornish-Bowden, A., 1995.). [formula]

Wild-type cruzipain, sequence (P25779 whole entry): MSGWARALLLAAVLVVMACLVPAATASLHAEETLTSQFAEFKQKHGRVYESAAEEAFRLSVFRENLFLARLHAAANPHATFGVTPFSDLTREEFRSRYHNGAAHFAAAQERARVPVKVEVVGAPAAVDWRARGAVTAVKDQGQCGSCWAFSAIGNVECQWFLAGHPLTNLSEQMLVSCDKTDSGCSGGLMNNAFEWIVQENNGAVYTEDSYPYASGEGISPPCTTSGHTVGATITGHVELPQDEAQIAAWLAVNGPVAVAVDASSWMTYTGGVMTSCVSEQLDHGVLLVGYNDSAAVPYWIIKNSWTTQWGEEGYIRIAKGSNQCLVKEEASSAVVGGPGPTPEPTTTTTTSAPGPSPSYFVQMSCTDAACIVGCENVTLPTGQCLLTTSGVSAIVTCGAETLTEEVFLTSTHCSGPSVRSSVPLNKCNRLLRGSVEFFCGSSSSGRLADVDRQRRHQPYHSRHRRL

Structure (SMILES)	Ki (Wild-type cruzipain) [µM]	Ki (CPB2.8ΔCTE) [µM]
CC(C)C[C@H](NC(=O)c1ccc(C(C)(C)C)cc1)C(=O)N1CC[C@@H]2[C@H]1C(=O)CN2C(=O)C1COc2ccccc2O1 (stereo partly drawn) [Example 29, (3aR,6aS)-4-tert-Butyl-N-{(1S)-1-[4-(2,3-dihydrobenzo[1,4]dioxine-2-carbonyl)-6-oxo-hexahydro-pyrrolo[3,2-b]pyrrole-1-carbonyl]-3-methyl-butyl}-benzamide]	< 5	< 5
CC(C)C[C@H](NC(=O)c1ccc(C(C)(C)C)cc1)C(=O)N1CC[C@@H]2[C@H]1C(=O)CN2C(=O)c1ccc2ncsc2c1 [Example 32, (3aR,6aS)-N-{(1S)-1-[4-(Benzothiazole-6-carbonyl)-6-oxo-hexahydro-pyrrolo[3,2-b]pyrrole-1-carbonyl]-3-methyl-butyl}-4-tert-butyl-benzamide]	< 5	< 5
CC(C)C[C@H](NC(=O)c1ccc(N(C)C)cc1)C(=O)N1CC[C@@H]2[C@H]1C(=O)CN2C(=O)c1ccccc1S(C)(=O)=O [Example 42, (3aR,6aS)-4-Dimethylamino-N-{(1S)-1-[4-(2-methanesulfonyl-benzoyl)-6-oxo-hexahydro-pyrrolo[3,2-b]pyrrole-1-carbonyl]-3-methyl-butyl}-benzamide]	< 5	< 5
CC(C)C[C@H](NC(=O)c1ccc(-c2ccccc2)s1)C(=O)N1CC[C@@H]2[C@H]1C(=O)CN2C(=O)c1ccccc1 [Example 44, (3aR,6aS)-5-Phenyl-thiophene-2-carboxylic acid [(1S)-1-(4-benzoyl-6-oxo-hexahydro-pyrrolo[3,2-b]pyrrole-1-carbonyl)-3-methyl-butyl]-amide]	< 5	< 5
CC(C)C[C@H](NC(=O)c1ccc(N(C)C)cc1)C(=O)N1CC[C@@H]2[C@H]1C(=O)CN2C(=O)c1ccc([N+](=O)[O-])cc1 [Example 47, (3aR,6aS)-4-Dimethylamino-N-{(1S)-3-methyl-1-[4-(4-nitro-benzoyl)-6-oxo-hexahydro-pyrrolo[3,2-b]pyrrole-1-carbonyl]-butyl}-benzamide]	< 5	< 5
CC(C)C[C@H](NC(=O)c1ccc(N(C)C)cc1)C(=O)N1CC[C@@H]2[C@H]1C(=O)CN2C(=O)c1ccc(N)cc1 [Example 50, (3aR,6aS)-N-{(1S)-1-[4-(4-Amino-benzoyl)-6-oxo-hexahydro-pyrrolo[3,2-b]pyrrole-1-carbonyl]-3-methyl-butyl}-4-dimethylamino-benzamide]	< 5	< 5
CC(C)C[C@H](NC(=O)c1ccc(N(C)C)cc1)C(=O)N1CC[C@@H]2[C@H]1C(=O)CN2C(=O)c1ccc(Oc2ccccc2)cc1 [Example 56, (3aR,6aS)-4-Dimethylamino-N-{(1S)-3-methyl-1-[6-oxo-4-(4-phenoxy-benzoyl)-hexahydro-pyrrolo[3,2-b]pyrrole-1-carbonyl]-butyl}-benzamide]	< 5	< 5
CC(C)C[C@H](NC(=O)c1ccc(N(C)C)cc1)C(=O)N1CC[C@@H]2[C@H]1C(=O)CN2C(=O)c1ccccc1F [Example 62, (3aR,6aS)-4-Dimethylamino-N-{(1S)-1-[4-(2-fluoro-benzoyl)-6-oxo-hexahydro-pyrrolo[3,2-b]pyrrole-1-carbonyl]-3-methyl-butyl}-benzamide]	< 5	< 5
COc1ccccc1C(=O)N1CC(=O)[C@@H]2[C@H]1CCN2C(=O)[C@H](CC(C)C)NC(=O)c1ccc(N(C)C)cc1 [Example 64, (3aR,6aS)-4-Dimethylamino-N-{(1S)-1-[4-(2-methoxy-benzoyl)-6-oxo-hexahydro-pyrrolo[3,2-b]pyrrole-1-carbonyl]-3-methyl-butyl}-benzamide]	< 5	< 5
COc1ccc(C(=O)N2CC(=O)[C@@H]3[C@H]2CCN3C(=O)[C@H](CC(C)C)NC(=O)c2ccc(N(C)C)cc2)cc1 [Example 66, (3aR,6aS)-4-Dimethylamino-N-{(1S)-1-[4-(4-methoxy-benzoyl)-6-oxo-hexahydro-pyrrolo[3,2-b]pyrrole-1-carbonyl]-3-methyl-butyl}-benzamide]	< 5	< 5
CC(C)C[C@H](NC(=O)c1ccc(N(C)C)cc1)C(=O)N1CC[C@@H]2[C@H]1C(=O)CN2C(=O)c1ccc(C(F)(F)F)cc1 [Example 69, (3aR,6aS)-4-Dimethylamino-N-{(1S)-3-methyl-1-[6-oxo-4-(4 trifluoromethyl-benzoyl)-hexahydro-pyrrolo[3,2-b]pyrrole-1-carbonyl]-butyl}-benzamide]	< 5	< 5
CC(C)C[C@H](NC(=O)c1ccc(N(C)C)cc1)C(=O)N1CC[C@@H]2[C@H]1C(=O)CN2C(=O)c1cccc(OC(F)(F)F)c1 [Example 70, (3aR,6aS)-4-Dimethylamino-N-{(1S)-3-methyl-1-[6-oxo-4-(3-trifluoromethoxy-benzoyl)-hexahydro-pyrrolo[3,2-b]pyrrole-1-carbonyl]-butyl}-benzamide]	< 5	< 5
CC(C)C[C@H](NC(=O)c1ccc(N(C)C)cc1)C(=O)N1CC[C@@H]2[C@H]1C(=O)CN2C(=O)c1ccc(OC(F)(F)F)cc1 [Example 71, (3aR,6aS)-4-Dimethylamino-N-{(1S)-3-methyl-1-[6-oxo-(4-trifluoromethoxy-benzoyl)-hexahydro-pyrrolo[3,2-b]pyrrole-1-carbonyl]-butyl}-benzamide]	< 5	< 5
CC(C)C[C@H](NC(=O)c1ccc(N(C)C)cc1)C(=O)N1CC[C@@H]2[C@H]1C(=O)CN2C(=O)c1ccccc1Cl [Example 72, (3aR,6aS)-N-{(1S)-1-[4-(2-Chloro-benzoyl)-6-oxo-hexahydro-pyrrolo[3,2-b]pyrrole-1-carbonyl)-3-methyl-butyl}-4-dimethylamino-benzamide]	< 5	< 5
CC(C)C[C@H](NC(=O)c1ccc(N(C)C)cc1)C(=O)N1CC[C@@H]2[C@H]1C(=O)CN2C(=O)c1ccncc1 [Example 82, (3aR,6aS)-4-Dimethylamino-N-{(1S)-3-methyl-1-[6-oxo-4-(pyridinecarbonyl)-hexahydro-pyrrolo[3,2-b]pyrrole-1-carbonyl]-butyl}-benzamide]	< 5	< 5
CC(C)C[C@H](NC(=O)c1ccc(N(C)C)cc1)C(=O)N1CC[C@@H]2[C@H]1C(=O)CN2C(=O)c1cccs1 [Example 95, (3aR,6aS)-4-Dimethylamino-N-{(1S)-3-methyl-1-[6-oxo-4-(thiophene-2-carbonyl)-hexahydro-pyrrolo[3,2-b]pyrrole-1-carbonyl]-butyl}-benzamide]	< 5	< 5
CC(C)C[C@H](NC(=O)c1ccc(N(C)C)cc1)C(=O)N1CC[C@@H]2[C@H]1C(=O)CN2C(=O)c1ccco1 [Example 96, (3aR,6aS)-4-Dimethylamino-N-{(1S)-1-[4-(furan-2-carbonyl)-6-oxo-hexahydro-pyrrolo[3,2-b]pyrrole-1-carbonyl]-3-methyl-butyl}-benzamide]	< 5	< 5
CC(C)C[C@H](NC(=O)c1ccc(N(C)C)cc1)C(=O)N1CC[C@@H]2[C@H]1C(=O)CN2C(=O)c1ccoc1 [Example 97, (3aR,6aS)-4-Dimethylamino-N-{(1S)-1-[4-(furan-3-carbonyl)-6-oxo-hexahydro-pyrrolo[3,2-b]pyrrole-1-carbonyl]-3-methyl-butyl}-benzamide]	< 5	< 5
